Source: publication PMC11635053, “Development of a homotrimeric PSMA radioligand based on the NOTI chelating platform” (EJNMMI Radiopharmacy and Chemistry, 2024)
Where two headings read alike, the source gives them in different places. Values belong to the compound of their own block, whether it stands above or below them.

Assays:
[1] = system: LNCaP xenograft bearing mice; conditions: 1 h p.i., cited from earlier work
patients = conditions: cited from earlier work; for Injected activity excreted: patients, ref Kurth et al. [2018]
PSMA = biological target: T1, PSMA (Homo sapiens, UniProt Q04609); assay: Competitive binding assay in LNCaP cells with [177Lu]Lu-PSMA-617 as radioligand; conditions: for IC50: LNCaP cells, radioligand [177Lu]Lu-PSMA-617, 2 h at r.t., read-out: IC50 (half maximum competitive inhibitory concentration)
T1 construct: host or cells: LNCaP
Protocol: In order to establish a structure–activity relationship, the binding affinity of the metal-free and ^natGa-complexes of the conjugates 7, 8, and 9 were determined in the PSMA-positive human prostate cancer cell line LNCaP by a competitive binding assay as previously reported using [^177Lu]Lu-PSMA-617 as the radioligand (Stemler et al. [2021]). The conjugate Glu-CO-Lys-Ahx-HBED-CC (PSMA-11) was included as the control.
The competitive binding assay was carried out using a MultiScreen®HTS Vacuum Manifold system (Merck, Germany) with 96-well filter plates. Serial dilutions of the metal-free conjugates and corresponding ^natGa complexes were prepared to obtain 7 final concentrations ranging from 0 to 1000 nM for each compound. PSMA-11 was also tested as control. Experiments were performed twice in triplicate for each compound. Freshly prepared ^177Lu-labeled PSMA-617 was used as the radioligand. A volume of 1 μL of [^177Lu]Lu-PSMA-617 stock solution (2.83 μM) was added into each tube of the dilution series (radioligand concentration 3.14 nM). For the experiment, 10^5 LNCaP cells were seeded into each well. The final volume of each well was 150 μL (100 μL cells in medium + 50 μL inhibitor in PBS). The experiment was incubated for 2 h at r.t. in a plate shaker. Then, the supernatants were removed by vacuum. Wells were furthermore washed out with ice-cold PBS (3 × 200 μL, pH 7.4). The filters were punched into tubes for the subsequent quantification of the activity in a Gamma-counter. A nonlinear regression algorithm was applied by the software GraphPad Prism to determine the specific inhibitory concentrations of 50% for the tested radiotracers.

[2] = system: PSMA-positive LNCaP cells; assay: Cell uptake / internalization of 68Ga-labeled conjugates in LNCaP cells; format: cell-based, human; conditions: 1 h incubation; for Cell uptake: in words
Protocol: Next, the cellular uptake of the ^68Ga-labeled conjugates 7, 8, and 9 as well as [^68Ga]Ga-PSMA-11 was determined in PSMA-positive LNCaP cells.
LNCaP cells were seeded (10^6 cells well^−1) in poly-L-lysine coated 6-well plates 24 h before the experiment. Experiments were performed twice in triplicate for each compound. The radiolabeling solutions of [^68Ga]Ga-7, [^68Ga]Ga-8, [^68Ga]Ga-9, and [^68Ga]Ga-PSMA-11 were first diluted with PBS (pH 7.4) to a concentration of […]. 100 µL of this dilution were added to 3900 µL PBS (pH 7.4) to obtain final stock solutions of each radiolabeled compound (0.025 nmol mL^−1).
On the day of the experiment, the medium was replaced by fresh preheated medium (1.4 mL w/o blocking, 1.3 mL with blocking) and the cells incubated for 1 h at 37 °C. Next, the blocking solution was added (100 μL, 2500 pmol) to the corresponding wells. Finally, the corresponding radiolabeled conjugate (100 μL, 2.5 pmol) was added to a final assay volume of 1.5 mL well^−1. After 1 h incubation time, the supernatants were removed and the cells were washed carefully with ice-cold PBS buffer (2 × 1 mL, pH 7.4) followed by a subsequent glycine–HCl washing step (50 mM, pH 2.8, 2 × 1 mL well^−1). Cells were incubated with the glycine–HCl solution for 4 min at r.t. Next, corresponding fractions were transferred into counting tubes. Subsequently, the cells were lysed by adding NaOH (2 × 1 mL well^−1, 0.1 M) and the lysed fractions were also transferred into counting tubes. As standards, 100 µL of each radiolabeled conjugate stock solution (0.025 nmol mL^−1, 2.5 pmol) were pipetted into counting tubes containing 2 mL PBS buffer. The activity of the standards, the surface bound fractions and the internalized fractions were measured in a Gamma counter. Means were calculated and subtracted by the background. The percentages of unspecific and specific cell-surface bound and internalized activity were calculated from the standards.

[3] = system: patient with metastatic prostate cancer; assay: Clinical PET/CT imaging; conditions: patient, 1 h p.i.
Protocol: PET/CT was performed approximately 1, 2, and 3 h after intravenous injection of 107 MBq of [^68Ga]Ga-9 and 1 h after injection of 113 MBq [^68Ga]Ga-PSMA-11 in a patient with metastatic prostate cancer. Whole body imaging extending from vertex to mid-femur was performed in 3D-ToF mode on a Biograph mCT 40 scanner (Siemens Medical Solutions, Knoxville, TN, USA) with an extended field of view of 21.4 cm. PET acquisition time was 3 min bed position^−1. Low-dose CT acquisition was performed for attenuation correction and anatomical localization using an X-ray tube voltage of 120 kV and a modulation of the tube current (maximal tube current: 30 mA; CARE Dose 4D software Siemens Healthineers, Erlangen, Germany) followed by reconstruction with a soft tissue reconstruction kernel (Bf37) to a slice thickness of 5 mm (increment 2–4 mm). PET emission data were additionally corrected for decay, randoms and scatter and reconstructed applying an iterative 3D ordered subset expectation maximization algorithm (3 iterations; 21 subsets) withGaussian filtering to transaxial resolution of 5 mm at full width at half maximum. The matrix size was 200 × 200 mm and the reconstructed pixel size was 5.0 mm.

human serum proteins = assay: in vitro; format: in vitro ADME; conditions: male; for Protein binding: 1 h; for fraction unbound at 1 h: Protein binding
Protocol: To determine the protein bound fraction of each trimeric radiotracer, 100 μL of the radiolabeling solution of the corresponding ^68Ga-labeled conjugate were added to preheated (37 °C) 1000 μL human serum (male, AB, Sigma Aldrich, USA) in triplicates. Samples were incubated for 1 h at 37 °C. After cooling to r.t., the samples were centrifuged utilizing molecular cutoff (30 kDa) centrifuge tubes at 4 G for 5 min at 4 °C. The filters were additionally rinsed with PBS buffer (2 × 100 μL). The background subtracted activity in the filters and the filtrates were determined in a Gamma counter and the percentage of protein bound fractions were calculated.

[4] = format: in vitro ADME; conditions: 2 h
Protocol: 100 μL of the radiolabeling solution of each ^68Ga-labeled tracer were added to preheated (37 °C) 1000 μL human serum (male, AB, Sigma Aldrich, USA) in triplicates and incubated at 37 °C. At 1 and 2 h, 100 µL aliquots were taken, mixed with 100 µL ice-cold acetonitrile, and centrifuged at 4 G for 5 min at 4 °C. The corresponding filtrates were kept on ice until HPLC analysis. The supernatants were then analyzed by radio-RP-HPLC and fractions of intact compounds were calculated from the HPLC chromatograms. (gradient 4,Gamma-ray detector: 100–900 keV, injection volume: 20 μl). tR ([^68Ga]Ga-7) = 12.1 min, tR ([^68Ga]Ga-8) = 14.4 min, tR ([^68Ga]Ga-9) = 25.2 min.

[5] = 2.5 pmol per 10^6 cells, 68Ga-labeled
[6] = lesions listed as 1 × prostate, 2 × lymph node metastasis

T1 sequence (Q04609 whole entry): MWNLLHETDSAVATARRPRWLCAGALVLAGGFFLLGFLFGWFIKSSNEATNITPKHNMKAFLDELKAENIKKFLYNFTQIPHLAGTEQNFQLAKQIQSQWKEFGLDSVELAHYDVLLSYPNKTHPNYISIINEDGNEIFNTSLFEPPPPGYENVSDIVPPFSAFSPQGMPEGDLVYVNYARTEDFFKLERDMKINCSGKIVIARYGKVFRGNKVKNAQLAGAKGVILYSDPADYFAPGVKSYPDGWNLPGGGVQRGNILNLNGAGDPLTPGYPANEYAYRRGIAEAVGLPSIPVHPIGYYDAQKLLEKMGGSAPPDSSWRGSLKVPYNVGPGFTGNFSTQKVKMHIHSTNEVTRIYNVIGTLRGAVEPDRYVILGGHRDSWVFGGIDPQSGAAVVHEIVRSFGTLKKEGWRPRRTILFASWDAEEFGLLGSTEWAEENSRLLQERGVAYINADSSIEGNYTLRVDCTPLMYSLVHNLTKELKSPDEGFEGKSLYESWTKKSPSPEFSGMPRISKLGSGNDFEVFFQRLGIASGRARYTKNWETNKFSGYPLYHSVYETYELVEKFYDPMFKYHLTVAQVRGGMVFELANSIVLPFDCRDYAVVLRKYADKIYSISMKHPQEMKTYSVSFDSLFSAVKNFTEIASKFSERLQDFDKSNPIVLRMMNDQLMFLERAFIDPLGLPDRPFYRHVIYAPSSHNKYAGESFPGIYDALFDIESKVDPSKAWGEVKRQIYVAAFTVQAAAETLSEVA

Compound: [^177Lu]Lu-PSMA-617
Kidney uptake ([1]; ref Benešová et al. ([2015])): 137.2 ± 77.8 % IA g^−1
Liver uptake ([1]; ref Benešová et al. ([2015])): 0.22 ± 0.08 % IA g^−1
Tumor uptake ([1]; ref Benešová et al. ([2015])): 11.20 ± 4.17 % IA g^−1
Tumor-to-kidney ratio ([1]; ref Benešová et al. ([2015])): 0.08
Tumor-to-liver ratio ([1]; ref Benešová et al. ([2015])): 50.91
Patients that may not respond to therapy (patients; PSMA targeted radioligand therapy, ref Kratochwil et al. [2016]): more than 30%
Injected activity excreted (patients; by 12 h): ~70%
Injected activity excreted (patients; within 4 h of administration): 50%

Compound: O=C(O)CC[C@H](NC(=O)N[C@@H](CCCCNC(=O)CCCCn1ccnc1CN1CCN(Cc2nccn2CCCCC(=O)NCCCC[C@H](NC(=O)N[C@@H](CCC(=O)O)C(=O)O)C(=O)O)CCN(Cc2nccn2CCCCC(=O)NCCCC[C@H](NC(=O)N[C@@H](CCC(=O)O)C(=O)O)C(=O)O)CC1)C(=O)O)C(=O)O [Compound 7, (2S,2'S,2''S)−2,2',2''-(((((1S,1'S,1''S)-((5,5',5''-(((1,4,7-triazonane-1,4,7-triyl)tris(methylene))tris(1H-imidazole-2,1-diyl))tris(pentanoyl))tris(azanediyl))tris(1-carboxypentane-5,1-diyl))tris(azanediyl))tris(carbonyl))tris(azanediyl))triglutaric acid]
IC50 (PSMA): 264 nM

Compound: O=C([O-])CN(CCN(CC(=O)[O-])Cc1cc(CCC(=O)NCCCCCC(=O)NCCCC[C@H](NC(=O)N[C@@H](CCC(=O)O)C(=O)O)C(=O)O)ccc1[O-])Cc1cc(CCC(=O)O)ccc1[O-].[68Ga+3].[OH3+] [[^68Ga]Ga-PSMA-11, reference compound]
Kidney uptake ([1]; ref Benešová et al. ([2015])): 187.4 ± 25.3 % IA g^−1
Tumor uptake ([1]; ref Benešová et al. ([2015])): 10.58 ± 4.5 % IA g^−1
Tumor-to-kidney ratio ([1]; ref Benešová et al. ([2015])): 0.06
Kidney uptake ([1]; ref Eder et al. ([2012])): 139.4 ± 21.4 % IA g^−1
Liver uptake ([1]; ref Eder et al. ([2012])): 0.87 ± 0.05 % IA g^−1
Tumor uptake ([1]; ref Eder et al. ([2012])): 7.70 ± 1.45 % IA g^−1
Tumor-to-kidney ratio ([1]; ref Eder et al. ([2012])): 0.06
Tumor-to-liver ratio ([1]; ref Eder et al. ([2012])): 8.85
SUVpeak in the parotid gland [3]: 37.0
SUVpeak in the submandibular gland [3]: 31.6
SUVpeak kidneys [3]: 126.3
SUVpeak liver [3]: 8.5
SUVpeak, first target lesion [3, 6]: 35.3
SUVpeak, second target lesion [3, 6]: 16.3
SUVpeak, third target lesion [3, 6]: 20.6
Cell internalization [2, 5]: 5.2 ± 0.2%
Cell-surface bound fraction [2, 5]: 4.5 ± 0.2%

Compound: O=C(O)CC[C@H](NC(=O)N[C@@H](CCCCNC(=O)CCCCn1ccnc1CN1CCN(Cc2nccn2CCCCC(=O)NCCCC[C@H](NC(=O)N[C@@H](CCC(=O)O)C(=O)O)C(=O)O)CCN(Cc2nccn2CCCCC(=O)NCCCC[C@H](NC(=O)N[C@@H](CCC(=O)O)C(=O)O)C(=O)O)CC1)C(=O)O)C(=O)O [^nat/68Ga-7, metal not drawn]
Protein binding (human serum proteins): 63.8 ± 4.0%
fraction unbound at 1 h (human serum proteins): ~0.36
IC50 (PSMA): 450 nM
Cell uptake [2]: negligible
Metabolic stability in human serum [4]: no significant degradation

More lines, main results first:

IC50 (PSMA): 65 nM
Factor by which affinity is lower compared to PSMA-11 (PSMA; LNCaP competitive binding, metal-free conjugate): ~ 3
Compound: O=C(O)CC[C@H](NC(=O)N[C@@H](CCCCNC(=O)CCCCCNC(=O)CCCCn1ccnc1CN1CCN(Cc2nccn2CCCCC(=O)NCCCCCC(=O)NCCCC[C@H](NC(=O)N[C@@H](CCC(=O)O)C(=O)O)C(=O)O)CCN(Cc2nccn2CCCCC(=O)NCCCCCC(=O)NCCCC[C@H](NC(=O)N[C@@H](CCC(=O)O)C(=O)O)C(=O)O)CC1)C(=O)O)C(=O)O [Compound 8, (3S,3'S,3''S,7S,7'S,7''S)−24,24',24''-(((1,4,7-triazonane-1,4,7-triyl)tris(methylene))tris(1H-imidazole-2,1-diyl))tris(5,13,20-trioxo-4,6,12,19-tetraazatetracosane-1,3,7-tricarboxylic acid)]

IC50 (PSMA): 5.9 nM
Compound: O=C(O)CC[C@H](NC(=O)N[C@@H](CCCCNC(=O)[C@H](Cc1ccc2ccccc2c1)NC(=O)[C@H]1CC[C@H](CNC(=O)CCCCn2ccnc2CN2CCN(Cc3nccn3CCCCC(=O)NC[C@H]3CC[C@H](C(=O)N[C@@H](Cc4ccc5ccccc5c4)C(=O)NCCCC[C@H](NC(=O)N[C@@H](CCC(=O)O)C(=O)O)C(=O)O)CC3)CCN(Cc3nccn3CCCCC(=O)NC[C@H]3CC[C@H](C(=O)N[C@@H](Cc4ccc5ccccc5c4)C(=O)NCCCC[C@H](NC(=O)N[C@@H](CCC(=O)O)C(=O)O)C(=O)O)CC3)CC2)CC1)C(=O)O)C(=O)O [Compound 9]
Cell internalization [2, 5]: 17.8 ± 2.5%

IC50 (PSMA): 18.5 nM
Compound: O=C(O)CCc1ccc(O)c(CN(CCN(CC(=O)O)Cc2cc(CCC(=O)NCCCCCC(=O)NCCCC[C@H](NC(=O)N[C@@H](CCC(=O)O)C(=O)O)C(=O)O)ccc2O)CC(=O)O)c1 [PSMA-11, Glu-CO-Lys-Ahx-HBED-CC, reference compound]

IC50 (PSMA): 90 nM
Compound: O=C(O)CC[C@H](NC(=O)N[C@@H](CCCCNC(=O)CCCCCNC(=O)CCCCn1ccnc1CN1CCN(Cc2nccn2CCCCC(=O)NCCCCCC(=O)NCCCC[C@H](NC(=O)N[C@@H](CCC(=O)O)C(=O)O)C(=O)O)CCN(Cc2nccn2CCCCC(=O)NCCCCCC(=O)NCCCC[C@H](NC(=O)N[C@@H](CCC(=O)O)C(=O)O)C(=O)O)CC1)C(=O)O)C(=O)O [^nat/68Ga-8, metal not drawn]
Protein binding (human serum proteins): 68.2 ± 1.5%
fraction unbound at 1 h (human serum proteins): ~0.35
Cell internalization [2, 5]: 0.08 ± 0.02%
Cell uptake [2]: negligible
Metabolic stability in human serum [4]: no significant degradation
